The source of these data is PubChem BioAssay AID200 (DTP/NCI, 2004).

Molecules are shown by their SMILES. “And” between values parts separate entries of the source, which are not always exact repeats. Identical values can stand only once. Inconclusive results and toxic doses are left out. Where a SMILES comes first, the peptide text is derived from it. The star is where a group is joined. Cbz = O=C(OCc1ccccc1)*; Bn = c1ccc(C*)cc1

The test concerns B6C3F1 mice, B16 melanoma ip, median survival T/C. Kind of test: NCI In Vivo Anticancer Drug Screen. Data for tumor model B16 Melanoma (intraperitoneal) in B6C3F1 mice. The note with it: endpoint: median survival time, schedule: Q01DX009 (ip), higher = longer survival. In short, it runs like this: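 Tumor-bearing mice received test compound; a separate group got vehicle only. Survival was then compared, with results reported as treated over control.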

The mark [1] stands for this setting: dose: 50.0 mg/kg/injection, vehicle: saline with Tween-80.
[2] abbreviates: dose: 100.0 mg/kg/injection, vehicle: saline with Tween-80.
Setting [3] is: dose: 200.0 mg/kg/injection, vehicle: saline with Tween-80.
Where [4] appears, read: dose: 400.0 mg/kg/injection, vehicle: saline with Tween-80.
[5] abbreviates: dose: 50.0 mg/kg/injection, vehicle: Klucel (hydroxypropylcellulose) (HPC).
The mark [6] stands for this setting: dose: 100.0 mg/kg/injection, vehicle: Klucel (hydroxypropylcellulose) (HPC).
Where [7] appears, read: dose: 12.5 mg/kg/injection, vehicle: saline with Tween-80.
The mark [8] stands for this setting: dose: 25.0 mg/kg/injection, vehicle: saline with Tween-80.
Setting [9] is: dose: 12.5 mg/kg/injection, vehicle: Klucel (hydroxypropylcellulose) (HPC).
The mark [10] stands for this setting: dose: 25.0 mg/kg/injection, vehicle: Klucel (hydroxypropylcellulose) (HPC).
Where [11] appears, read: dose: 200.0 mg/kg/injection, vehicle: Klucel (hydroxypropylcellulose) (HPC).
Where [12] appears, read: dose: 50.0 mg/kg/injection, vehicle: saline.
The mark [13] stands for this setting: dose: 100.0 mg/kg/injection, vehicle: saline.

In the case of `C=C1C(=O)OC2/C=C(\C)CC(O)/C=C(/CO)CC(OC(=O)/C(C)=C/C)C12` (configuration not stated), the T/C (dose: 7.5 mg/kg/injection, vehicle: saline + alcohol) is 115 % of control; the T/C (dose: 7.5 mg/kg/injection, vehicle: saline with Tween-80) was 102 % of control; the T/C (dose: 15.0 mg/kg/injection, vehicle: saline + alcohol) was 123 % of control; the T/C (dose: 15.0 mg/kg/injection, vehicle: saline with Tween-80) is 103 % of control; the T/C (dose: 15.0 mg/kg/injection, vehicle: saline) is 98 % of control; the T/C (dose: 30.0 mg/kg/injection, vehicle: saline with Tween-80) is 97 % of control. In addition, the T/C by setting is: (dose: 30.0 mg/kg/injection, vehicle: saline) 116 % of control; (dose: 60.0 mg/kg/injection, vehicle: saline + alcohol) 155 % of control; (dose: 60.0 mg/kg/injection, vehicle: saline with Tween-80) 98 % of control; (dose: 60.0 mg/kg/injection, vehicle: saline) 120 % of control.
`CC(C)(C)c1ccc(C(=O)N2CCOC23CCCCC3)cc1`: the T/C by setting is: under setting [1], 91 % of control and 101 % of control; under setting [2], 98 % of control and 107 % of control; under setting [3], 94 % of control and 104 % of control; under setting [4], 91 % of control and 104 % of control; (dose: 800.0 mg/kg/injection, vehicle: saline with Tween-80) 92 % of control and 98 % of control.
As for `COC1C(CO)OC(n2cnc3c(=S)nc(N)[nH]c32)C1O` (configuration not stated), the T/C was 116 % of control under setting [5] and 114 % of control under setting [6].
As for `CCC1CN2CCC3(C(=O)Nc4ccccc43)C2CC1/C(=C/OC)C(=O)OC` (configuration not stated), the T/C was 90 % of control (dose: 6.25 mg/kg/injection, vehicle: saline with Tween-80); 108 % of control under setting [7]; 93 % of control under setting [8]; 93 % of control under setting [1].
For the compound `CCOC(=O)c1ccc(NN=NCCF)cc1`, the T/C is 123 % of control and 102 % of control (dose: 3.0 mg/kg/injection, vehicle: distilled water + Tween-80); 123 % of control (dose: 3.12 mg/kg/injection, vehicle: distilled water + Tween-80); 112 % of control and 98 % of control (dose: 6.0 mg/kg/injection, vehicle: distilled water + Tween-80); 87 % of control and 103 % of control (dose: 12.0 mg/kg/injection, vehicle: distilled water + Tween-80); 155 % of control (dose: 12.5 mg/kg/injection, vehicle: distilled water + Tween-80); 108 % of control and 101 % of control (dose: 24.0 mg/kg/injection, vehicle: distilled water + Tween-80). Moreover, the T/C was 198 % of control (dose: 25.0 mg/kg/injection, vehicle: distilled water + Tween-80); 96 % of control and 102 % of control (dose: 48.0 mg/kg/injection, vehicle: distilled water + Tween-80).
Regarding `CCOC(=O)C1(c2ccccc2)C(=O)Oc2ccccc21` (configuration not stated), the T/C runs as follows: under setting [7], 99 % of control and 100 % of control; under setting [8], 101 % of control and 102 % of control; under setting [1], 95 % of control and 105 % of control; under setting [2], 93 % of control and 95 % of control; under setting [3], 93 % of control and 100 % of control; under setting [4], 91 % of control.
On to `O=C1C2CC(Cl)C(SSC3CC4C(=O)N(SC(Cl)(Cl)C(Cl)Cl)C(=O)C4CC3Cl)CC2C(=O)N1SC(Cl)(Cl)C(Cl)Cl` (configuration not stated), for which the T/C was 98 % of control under setting [8], 104 % of control under setting [1] and 98 % of control under setting [2].
With `S=C(Nc1ccc(Cl)c(Cl)c1)N1c2ccccc2-n2cccc2C1c1cccnc1` (configuration not stated), the T/C was 90 % of control and 98 % of control and 102 % of control under setting [9]; 99 % of control under setting [7]; 91 % of control and 94 % of control and 98 % of control under setting [10]; 102 % of control under setting [8]; 90 % of control and 104 % of control and 107 % of control under setting [5]; 99 % of control under setting [1]. The T/C is, setting by setting: under setting [6], 88 % of control and 91 % of control and 97 % of control; under setting [2], 107 % of control; under setting [11], 114 % of control and 90 % of control (2×); under setting [3], 102 % of control; (dose: 400.0 mg/kg/injection, vehicle: Klucel (hydroxypropylcellulose) (HPC)) 91 % of control.
On to `O=C1CCC(=O)N1CO`, for which the T/C by setting is: under setting [12], 121 % of control; under setting [13], 117 % of control.
As to `COC(=O)C12OCC34C(CC5C(C)C6=CC(=O)OC6=CC5(C)C3C(O)C1O)OC(=O)C(O)C24` (configuration not stated), the T/C (dose: 0.5 mg/kg/injection, vehicle: Klucel (hydroxypropylcellulose) (HPC)) is 154 % of control; the T/C (dose: 180.0 micrograms/kg/injection, vehicle: Klucel (hydroxypropylcellulose) (HPC)) was 116 % of control; the T/C (dose: 833.3 micrograms/kg/injection, vehicle: Klucel (hydroxypropylcellulose) (HPC)) is 153 % of control; the T/C (dose: 1388.8 micrograms/kg/injection, vehicle: Klucel (hydroxypropylcellulose) (HPC)) was 178 % of control.
In the case of `CC(C)C(NC(=O)C(CSCc1ccccc1)NC(=O)OCc1ccccc1)C(=O)O` (configuration not stated) (Cbz-Cys(Bn)-Val-OH; configuration not given here), the T/C runs as follows: under setting [6], 93 % of control; under setting [11], 98 % of control.
On to `CCCC(=O)c1ccco1`, for which the T/C reads like this: under setting [7], 98 % of control; under setting [8], 109 % of control; under setting [1], 100 % of control.
Turning to `NC(=O)C(Cc1ccccc1)NC(=O)C(CSCc1ccccc1)NC(=O)OCc1ccccc1` (configuration not stated) (Cbz-Cys(Bn)-Phe-NH2; configuration not given here), the T/C was 91 % of control under setting [10]; 109 % of control and 105 % of control under setting [5]; 100 % of control and 103 % of control under setting [6].
For `Cc1c2cc[n+](C)cc2c(C)c2c1[nH]c1ccc(O)cc12`, the T/C is 107 % of control (dose: 0.12 mg/kg/injection, vehicle: water); 117 % of control (dose: 0.13 mg/kg/injection, vehicle: water); 123 % of control (dose: 1.25 mg/kg/injection, vehicle: saline); 116 % of control (dose: 2.5 mg/kg/injection, vehicle: saline).
Turning to `O=S(=O)(c1ccccc1)N1CN2CCN(C2)C1`, the T/C by setting is: under setting [7], 96 % of control; under setting [8], 94 % of control; under setting [1], 108 % of control; under setting [2], 112 % of control; under setting [3], 119 % of control; under setting [4], 122 % of control.
`CC(C)C(NC(=O)C(F)(F)F)C(=O)O` (configuration not stated): the T/C is 96 % of control under setting [12] and 89 % of control under setting [13].
For the compound `O=CC(CO)CC(C=O)n1cnc2c(=O)[nH]cnc21` (configuration not stated), the T/C by setting is: (dose: 37.5 mg/kg/injection, vehicle: saline) 106 % of control; (dose: 75.0 mg/kg/injection, vehicle: saline) 108 % of control; (dose: 150.0 mg/kg/injection, vehicle: saline) 100 % of control; (dose: 300.0 mg/kg/injection, vehicle: saline) 111 % of control.
Take `Cc1ccc2c(ccc(CC(=S)[S-])[n+]2C)c1`: the T/C reads like this: (dose: 6.25 mg/kg/injection, vehicle: Klucel (hydroxypropylcellulose) (HPC)) 92 % of control and 93 % of control; under setting [9], 92 % of control and 99 % of control; under setting [10], 87 % of control and 88 % of control; under setting [5], 89 % of control.
Turning to `COCC12CCC(OC)C34C5CC6(O)C(OC)CC(OC(C)=O)(C5C6OC(=O)c5ccccc5)C(C(OC)C13)C4N(C)C2` (configuration not stated), the T/C is 92 % of control (dose: 15.0 micrograms/kg/injection, vehicle: Klucel (hydroxypropylcellulose) (HPC)); 108 % of control (dose: 30.0 micrograms/kg/injection, vehicle: Klucel (hydroxypropylcellulose) (HPC)); 96 % of control (dose: 60.0 micrograms/kg/injection, vehicle: Klucel (hydroxypropylcellulose) (HPC)); 99 % of control (dose: 120.0 micrograms/kg/injection, vehicle: Klucel (hydroxypropylcellulose) (HPC)).
